Test results from PMC3010111 (Molecular Systems Biology, 2010).

Biological target: T1, AroB (dehydroquinate synthase) (Escherichia coli, UniProt P07639)
T1 sequence (P07639 1-362): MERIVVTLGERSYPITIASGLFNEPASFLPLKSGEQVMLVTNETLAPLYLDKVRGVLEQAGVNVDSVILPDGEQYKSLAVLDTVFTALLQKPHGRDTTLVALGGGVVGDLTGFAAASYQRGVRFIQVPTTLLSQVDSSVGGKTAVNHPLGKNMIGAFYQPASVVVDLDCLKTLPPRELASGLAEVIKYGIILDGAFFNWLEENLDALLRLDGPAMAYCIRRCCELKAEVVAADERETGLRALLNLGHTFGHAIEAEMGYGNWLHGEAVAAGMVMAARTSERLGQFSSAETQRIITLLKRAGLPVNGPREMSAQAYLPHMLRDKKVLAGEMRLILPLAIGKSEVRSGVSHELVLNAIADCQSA
Assay: NAD+ reduction
Format: biochemical
Conditions: 2 mM NAD+, 100 mM Tris–HCl pH 7.5, 10°C; 11 μM AroB

With `O=C(O)[C@H](O)[C@H](O)COP(=O)(O)O` [4PE] the “NAD+ reduction; single turnover (data not shown)” value was “AroB also oxidizes 4PE, but carries out only a single turnover (data not shown)”.
